From US8158635B2, “Solid forms comprising 4-[9-(tetrahydro-furan-3-yl)-8-(2,4,6-trifluoro-phenylamino)-9H-purin-2-ylamino]-cyclohexan-1-ol, compositions thereof, and uses therewith” (Signal Pharmaceuticals, LLC, priority 2006, dated 2012)
Where a name gives a salt, the structure may show the parent alone.

Tests used:
[1] = Storage stability at stress conditions (about 40° C. and about 75% RH); format: physicochemical; details: about 40° C. and about 75% RH for about four weeks
Protocol: In certain embodiments, Form A of the HCl salt of Compound I is substantially pure. In certain embodiments, Form A of the HCl salt of Compound I is stable upon slurry in particular solvents at particular temperatures. For example, in certain embodiments, Form A of the HCl salt is stable in, e.g., acetone, acetonitrile, ethyl acetate, heptane, MTBE, toluene, THF and mixtures of two or more thereof at about 40° C. for about four weeks. In certain embodiments, Form A of the HCl salt is stable upon storage at particular stress conditions. For example, in certain embodiments, Form A of the HCl salt of Compound I is stable upon storage at about 40° C. and about 75% RH for about four weeks.

[2] = Equilibration of solid form in solvent for 4 weeks at 40° C., resulting form by XRPD; format: physicochemical
Protocol: Equilibration slurry and evaporation experiments were carried out by adding an excess of Compound I free base or HCl salt to 2 mL of solvent. […] Upon reaching equilibrium, the saturated supernatant solution was removed and allowed to evaporate slowly in an open vial under nitrogen at 25° C. or 50° C., respectively. The slurry resulting from the equilibration was filtered and air-dried. X-ray powder diffraction (XRPD) measurements were performed in accordance with United States Pharmacopeia (USP) monograph <941> entitled “X-ray Diffraction” (See, e.g., The United States Pharmacopeia, The National Formulary, 2003, The Unites States Pharmacopeial Convention, Inc., Rockville, Md., 2002, which is herein incorporated by reference in its entirety). A Thermo ARL X'TRA X-ray powder diffractometer (Thermo Electron Corp., Waltham, Mass.), equipped with Nickel-filtered Cu Kα radiation at 1.54 Å, was used for XRPD measurements from about 1.5 °2θ to about 40 °2θ, with a step size of about 0.020°, a count time of about 0.50 seconds per step, and a step scan rate of about 2.40°/min. The instrument was equipped with a fine focus X-ray tube. The voltage and amperage were set at 45 kV and 40 mA, respectively. The divergence slits were set at 0.5 mm and 0.2 mm. Diffracted radiation was measured using a Peltier-cooled Si (Li) solid-state detector. Representative XRPD patterns were presented displaying intensity (counts per second) versus position (°2θ). A sintered alumina standard was used to check peak positions. Peak positions may vary from sample to sample by approximately ±0.1 °2θ. Variation in peak position may depend upon multiple factors, including particle size, sample preparation, data collection temperature and parameters. Variation in peak intensity may occur, e.g., as a result of preferred orientation and/or variation in crystal habit.

OC1CCC(Nc2ncc3nc(Nc4c(F)cc(F)cc4F)n(C4CCOC4)c3n2)CC1 (stereo not shown) [Form A of the HCl salt of Compound I, 4-[9-(tetrahydro-furan-3-yl)-8-(2,4,6-trifluoro-phenylamino)-9H-purin-2-ylamino]-cyclohexan-1-ol]
stable: stability upon storage at stress conditions [1] | stability upon slurry in solvents ([2]; acetone, acetonitrile, ethyl acetate, heptane, MTBE, toluene, THF and mixtures, about 40° C. for about four weeks)
Compound I HCl Salt Form A: Resulting Form by XRPD ([2]; Equilibrate HCl salt Form A in 2-Propanol for 4 weeks at 40° C.) | Resulting Form by XRPD ([2]; Equilibrate HCl salt Form A in Acetonitrile for 4 weeks at 40° C.) | Resulting Form by XRPD ([2]; Equilibrate HCl salt Form A in Ethyl acetate for 4 weeks at 40° C.) | Resulting Form by XRPD ([2]; Equilibrate HCl salt Form A in Heptane for 4 weeks at 40° C.) | Resulting Form by XRPD ([2]; Equilibrate HCl salt Form A in MTBE for 4 weeks at 40° C.) | Resulting Form by XRPD ([2]; Equilibrate HCl salt Form A in THF for 4 weeks at 40° C.) | Resulting Form by XRPD ([2]; Equilibrate HCl salt Form A in Toluene for 4 weeks at 40° C.) | Resulting Form by XRPD ([2]; Equilibrate HCl salt in Acetone for 4 weeks at 40° C.)
